Measurements as given in ChEMBL document CHEMBL1201862, “PubChem BioAssay data set” (2004).
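Test compounds were applied to cells in 96-well plates for 48 hours at 5 doses. GI50 is the concentration that inhibits growth by half.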 Calls of active or inactive are those of the source. No stated cut-off is given here; in the data, active = GI50 up to about 1.1 µM and inactive = higher.

Experiments:
Assay in all cases: inhibition of tumour cell growth, NCI panel, 48 h
[1] = tested on: SNB-75
[2] = tested on: RPMI-8226
[3] = tested on: MCF7
[4] = tested on: NCI-H23
[5] = tested on: NCI-H522
[6] = tested on: PC-3
[7] = tested on: DU-145
[8] = tested on: SK-MEL-28
[9] = tested on: U-251
[10] = tested on: NCI/ADR-RES
[11] = tested on: IGROV-1
[12] = tested on: MDA-MB-435
[13] = tested on: MOLT-4
[14] = tested on: SK-OV-3
[15] = tested on: OVCAR-4
[16] = tested on: UO-31
[17] = tested on: SK-MEL-5
[18] = tested on: M14
[19] = tested on: SF-295
[20] = tested on: CCRF-CEM
[21] = tested on: SNB-19
[22] = tested on: SW-620
[23] = tested on: HCT-116
[24] = tested on: HOP-92
[25] = tested on: OVCAR-5
[26] = tested on: OVCAR-8
[27] = tested on: Malme-3M
[28] = tested on: RXF 393
[29] = tested on: SF-539
[30] = tested on: UACC-257
[31] = tested on: COLO 205
[32] = tested on: SK-MEL-2
[33] = tested on: SN12C
[34] = tested on: KM12
[35] = tested on: MDA-MB-231
[36] = tested on: CAKI-1
[37] = tested on: TK-10
[38] = tested on: LOX IMVI
[39] = tested on: HL-60
[40] = tested on: NCI-H226
[41] = tested on: HT-29
[42] = tested on: A549
[43] = tested on: 786-0
[44] = tested on: EKVX
[45] = tested on: T47D
[46] = tested on: HCT-15
[47] = tested on: ACHN
[48] = tested on: K562
[49] = tested on: UACC-62
[50] = tested on: MDA-N
[51] = tested on: HCC 2998
[52] = tested on: OVCAR-3
[53] = tested on: HOP-62
[54] = tested on: A498
[55] = tested on: NCI-H460
[56] = tested on: Hs-578T
[57] = tested on: SR
[58] = tested on: SF-268

Measured: GI50

CCN(CC)CCCNc1nc(=O)[nH]c(C)c1C(=O)Nc1cccc2cc3ccccc3cc12
inactive: [1] > 100 µM | [2] > 100 µM | [3] > 100 µM | [4] > 100 µM | [5] 85.3 µM | [6] > 100 µM | [7] > 100 µM | [8] > 100 µM | [9] > 100 µM | [10] > 100 µM | [11] > 100 µM | [12] > 100 µM | [13] > 100 µM | [14] > 100 µM | [15] > 100 µM | [16] > 100 µM | [17] > 100 µM | [18] > 100 µM | [19] > 100 µM | [20] > 100 µM | [21] > 100 µM | [22] > 100 µM | [23] > 100 µM | [24] 62.2 µM | [25] > 100 µM | [26] > 100 µM | [27] > 100 µM | [28] 78.7 µM | [29] > 100 µM | [30] > 100 µM | [31] > 100 µM | [32] > 100 µM | [33] > 100 µM | [34] 45.9 µM | [35] 82.4 µM | [36] > 100 µM | [37] > 100 µM | [38] > 100 µM | [39] > 100 µM | [40] > 100 µM | [41] > 100 µM | [42] > 100 µM | [43] > 100 µM | [44] > 100 µM | [45] > 100 µM | [47] > 100 µM | [48] > 100 µM | [49] > 100 µM | [50] > 100 µM | [51] > 100 µM | [52] > 100 µM | [53] > 100 µM
> 100 µM: [46]

NS(=O)(=O)c1ccc(/C=C/c2ccc(O)cc2)cc1
inactive: [1] 15.6 µM | [3] 17.5 µM | [6] 18.8 µM | [7] 16.2 µM | [8] 27.5 µM | [10] 14 µM | [14] 23.9 µM | [16] 8.73 µM | [17] 11.4 µM | [18] 24.4 µM | [19] 21.3 µM | [21] 44.4 µM | [22] 25.6 µM | [23] 23 µM | [24] 10.7 µM | [25] 40.6 µM | [27] 26.9 µM | [28] 51.6 µM | [30] 30.4 µM | [31] 19.9 µM | [32] 25.9 µM | [54] 41.5 µM | [33] 18.9 µM | [35] 14.8 µM | [37] 43.8 µM | [43] 10.7 µM | [44] 22.7 µM | [45] 21.1 µM | [55] 18.7 µM | [50] 33 µM | [51] 19.7 µM | [52] 19 µM | [53] 31.5 µM

O=C1c2c(O)cccc2Cc2cccc(O)c21 [ANTHRALIN]
inactive: [54] 1.22 µM
active: [2] 0.321 µM | [3] 0.255 µM | [4] 0.327 µM | [7] 0.264 µM | [8] 0.783 µM | [9] 0.313 µM | [11] 0.375 µM | [12] 0.348 µM | [14] 0.351 µM | [15] 0.447 µM | [56] 0.29 µM | [16] 0.3 µM | [17] 0.178 µM | [57] 0.31 µM | [18] 0.256 µM | [19] 0.269 µM | [21] 0.435 µM | [25] 0.57 µM | [26] 0.321 µM | [28] 0.32 µM | [29] 0.273 µM | [30] 0.216 µM | [34] 0.355 µM | [36] 0.337 µM | [37] 0.684 µM | [39] 0.259 µM | [40] 0.314 µM | [41] 0.322 µM | [42] 0.334 µM | [43] 0.386 µM | [44] 0.2 µM | [55] 0.334 µM | [58] 0.376 µM | [47] 0.319 µM | [49] 0.415 µM | [50] 0.321 µM | [52] 0.382 µM | [53] 0.347 µM
